Measurements reported in US20200171042A1, “BRAIN-PENETRANT CHROMONE OXIME DERIVATIVE FOR THE THERAPY OF LEVODOPA-INDUCED DYSKINESIA” (Prexton Therapeutics SA, priority 2015, published 2020).
Blank lines part the entries; values can stand above or below the compound they belong to.

Experiments:
[1] = tested on: MPTP macaque model of Parkinson's disease; assay: MPTP macaque model of advanced stages of PD; type: in vivo, Macaca fascicularis
Description: The anti-parkinsonian efficacy of the compound of formula (I) according to the present invention (i.e., PXT002331) was evaluated in the 1-methyl-4-phenyl-1,2,3,6-tetrahydropyridine (MPTP) macaque model of Parkinson's disease (using macaques of the species Macaca fascicularis), which reproduces most of the clinical and pathological hallmarks of Parkinson's disease and is considered a “gold standard” (see Porras G et al., Cold Spring Harb Perspect Med., 2(3):a009308, 2012 and references cited therein for a general description of the MPTP model). […] The anti-parkinsonian efficacy of PXT002331 (25 mg/kg) was further evaluated in combination with low (suboptimal) doses of L-dopa (levodopa; 4-9 mg/kg) (see FIGS. 5B and 5C). In this model, levodopa methyl ester was administered sub-cutaneously together with a fixed dose of benserazide (50 mg total), a peripherally-acting levodopa decarboxylase inhibitor. Doses of PXT002331 were orally administered twice a day during 4 days, and assessment of parkinsonian scores took place at day 4 (between 1 and 2 h after L-dopa administration, i.e., between 2 and 3 h after PXT002331 administration). […] The results of a dose-response evaluation of the combination of PXT002331 (at doses from 2 mg/kg to 100 mg/kg) with L-dopa (low dose) are shown in FIG. 5D (the assessment of parkinsonian scores took place at day 4).

[2] = tested on: CLD MPTP macaque model of early-stage PD; assay: chronic low doses of MPTP (CLD MPTP) macaque model of early-stage PD; type: in vivo, Macaca fascicularis
Description: In this model, levodopa was administered orally as Madopar which contains benserazide hydrochloride (4:1 ratio of levodopa:benserazide), a peripherally-acting levodopa decarboxylase inhibitor. In this experiment, each monkey was equipped with a detector of movements and signals were collected with 24 light beams and a video track recorder in order to discriminate all types of movements. The movements of each monkey were quantified every 5 min using computer-based activity monitors. Total values are presented over 4 hours.

CLD MPTP macaque model = assay: Variable Delayed Response (VDR) task, cognitive performance of CLD MPTP monkeys; type: in vivo, Macaca fascicularis
Excerpt: Monkeys that receive chronic low doses of MPTP administration (CLD MPTP macaque model) develop cognitive impairment, as measured in the Variable Delayed Response (VDR) task. It was therefore decided to evaluate the cognitive impact of PXT002331 in these animals, in order to assess potential side effects on cognitive symptoms.

[3] = in vivo pharmacokinetics in rats (plasma and brain exposure); design: species or system male Sprague-Dawley rats; conditions: rat
Description: PXT002331 and PXT001858 were administered per os (p.o.) at 10 mg/kg to male Sprague-Dawley rats. Volume of administration was 10 ml/kg. In parallel, PXT002331 was also administered intravenously (i.v.) at 1 mg/kg, with a volume of administration of 2 ml/kg. Blood samples (200 μl) were collected at time ranging from 15 minutes to 24 hours for the p.o. administration and from 5 minutes to 24 hours for the i.v. administration in ice-cold tubes containing 0.2% K2EDTA. Tubes were centrifuged at 10,000 rpm for 5 minutes at 4° C. The plasma (supernatant) was separated in another tube and stored at −80° C. until analysis. Two groups of 3 animals were used for each route of administration: in one group, blood samples were collected to determine the kinetics of plasma exposure over a 24-hour period, and in the second group, blood and brain were collected at one terminal time point (0.5, 1.0, 1.5, 2.0, 4.0 hours) to determine the kinetics of brain exposure and brain/plasma ratio.
The respective parent compound (free base) was analysed in plasma samples and in brain homogenate using a LC-MS/MS method. Concentrations are expressed in ng/ml of plasma or in ng/g of brain tissue.

human mGluR4 = human mGluR4 (Homo sapiens, UniProt Q14833); assay: calcium assay, agonistic and/or positive allosteric modulator activity; type: cell-based; conditions: read-out: EC50 (corresponding to pEC50) (converted)
Description: The compound of formula (I) according to the invention (i.e., PXT002331) was tested for its agonistic and/or positive allosteric modulator activity on human mGluR4 using the calcium assay described in Example 171 of WO 2011/051478.

[4] = phase I metabolic stability, CL (h); type: in vitro ADME; conditions: human; h of CL (h/r)
Description: (§1) The in vitro ADME profile of PXT002331 was also very similar with reference to phase I metabolic stability: CL (h/r): 55/101 μl/min/mg protein and intestinal absorption: CaCo-2 (A-B, pgp): 4.11 .10-6 cm/s, no efflux.

[5] = phase I metabolic stability, CL (r); type: in vitro ADME; conditions: rat; r of CL (h/r)
Description: as §1

[6] = intestinal absorption CaCo-2 (A-B, pgp); type: in vitro ADME; conditions: human, Caco-2; A-B
Description: as §1

CaCo-2 = assay: intestinal absorption CaCo-2 (A-B, pgp); type: in vitro ADME; conditions: pgp
Description: as §1

plasma protein binding = type: in vitro ADME; conditions: read-out: plasma protein binding, free fraction
solubility in water = type: physicochemical; conditions: as hydrochloride salt
[7] = tested on: UGT (UDP-Glucuronosyl transferase); assay: in vitro glucuronidation in rat liver microsomes; type: in vitro ADME; conditions: in vitro in the presence of UGT
Description: Despite their similar oral absorption, PXT002331 has a higher brain/plasma ratio (6.5 versus 2.0 at T=1.5 h; see FIG. 4) leading to a 3-fold improvement in the brain AUC when compared to PXT001858. A posteriori, one potential hypothesis might rely on the difference of phase II conjugation in the intestine and liver during oral absorption. […] Nonetheless, this difference observed in vitro cannot by itself explain the unexpected advantageous PK results obtained with PXT002331. The results obtained in these experiments are furthermore summarized in Tables 1 to 3 below and in FIGS. 1 to 4.

[8] = tested on: MPTP macaque model of L-DOPA-induced dyskinesia; assay: MPTP macaque model of L-DOPA-induced dyskinesia (LID); type: in vivo
Description: Like PD patients, MPTP macaques experience side effects of their long-term L-DOPA therapy, including L-DOPA-induced dyskinesia (LID). This was the case with the MPTP macaques that were at an advanced stage of parkinsonism used in this experiment. PXT002331 was tested in these monkeys, using the dose of 25 mg/kg in combination with L-DOPA.
Moreover, this was observed as early as day 1, which corresponds to an acute administration of PXT002331, and is maintained after a sub-chronic treatment (twice daily for 8 consecutive days). Importantly, the efficacy of L-DOPA for reducing parkinsonian symptoms (tremor, posture, mobility) was maintained in association with PXT002331 dose, as shown in FIG. 9B.

MPTP macaques = assay: general behavior, adverse events in MPTP macaques; type: in vivo, Macaca fascicularis; conditions: alone or with L-DOPA, even at high doses
Description: Adverse events and side effects of PXT002331 were analyzed during each study performed in macaques (see Example 3).

[9] = p.o. 10 mg/kg, vehicle Tween-80/Ethanol/30% HPBCD (2/10/88)

human mGluR4, sequence (Q14833 33-912): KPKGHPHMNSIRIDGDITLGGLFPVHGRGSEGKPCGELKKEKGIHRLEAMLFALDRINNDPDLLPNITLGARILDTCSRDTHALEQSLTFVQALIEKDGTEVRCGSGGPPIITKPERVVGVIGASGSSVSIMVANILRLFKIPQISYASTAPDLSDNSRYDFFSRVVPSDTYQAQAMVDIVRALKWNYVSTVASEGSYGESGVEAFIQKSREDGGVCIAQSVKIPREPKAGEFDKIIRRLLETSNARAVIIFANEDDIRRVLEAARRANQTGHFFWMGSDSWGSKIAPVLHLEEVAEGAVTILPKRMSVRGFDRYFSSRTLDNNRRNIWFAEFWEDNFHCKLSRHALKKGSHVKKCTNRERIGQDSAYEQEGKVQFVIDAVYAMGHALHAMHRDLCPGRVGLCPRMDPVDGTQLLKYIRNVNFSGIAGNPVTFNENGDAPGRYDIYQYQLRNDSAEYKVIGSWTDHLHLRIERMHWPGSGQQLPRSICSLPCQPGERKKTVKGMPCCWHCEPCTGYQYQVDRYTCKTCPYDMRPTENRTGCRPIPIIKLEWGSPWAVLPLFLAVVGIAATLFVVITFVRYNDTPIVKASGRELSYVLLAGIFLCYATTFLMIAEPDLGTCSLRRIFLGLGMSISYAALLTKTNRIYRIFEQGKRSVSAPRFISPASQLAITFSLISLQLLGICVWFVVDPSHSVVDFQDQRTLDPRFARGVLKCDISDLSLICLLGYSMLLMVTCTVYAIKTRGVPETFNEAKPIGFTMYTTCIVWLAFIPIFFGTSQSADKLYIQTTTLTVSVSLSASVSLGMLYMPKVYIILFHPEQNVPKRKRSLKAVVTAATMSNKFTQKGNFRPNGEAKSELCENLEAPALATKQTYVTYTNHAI

dyskinesia (mean dyskinesia score) ([1]; highest doses of L-DOPA): very mild | dyskinesia ([1]; sub-optimal doses of L-DOPA): weak or absent | induction of dyskinesia ([2]; L-DOPA alone, model of early stage PD): did not induce dyskinesia | omissions in VDR task (CLD MPTP macaque model; one out of four animals, optimal dose of L-DOPA alone): ~100%
SMILES: N[C@@H](Cc1ccc(O)c(O)c1)C(=O)O [L-DOPA, L-3,4-dihydroxyphenylalanine, reference compound]

Brain AUC inf ([3]; oral 10 mg/kg): 838 ng·h/g | Cmax (Brain) ([3]; oral 10 mg/kg): 521 ng/G tissue
SMILES: O/N=c1\cc(-c2cc3sccc3cn2)oc2ccc(OCCN3CCOCC3)cc12 [PXT001858, reference compound]

EC50 (human mGluR4): ~76 nM | microsomal CLint [4]: 55 µL/min/mg | microsomal CLint [5]: 101 µL/min/mg | Papp A→B [6]: 4.11 ×10⁻⁶ cm/s | CaCo-2 efflux (CaCo-2): no efflux | fraction unbound (plasma protein binding): < 0.01 | solubility (solubility in water): > 10000 µg/mL | Kp at 1.5 h ([3]; male, Sprague-Dawley, brain, oral 10 mg/kg, T = 1.5 h, read-out: Brain/Plasma ratio (T = 1.5 h)): 6.5 | bioavailability ([3]; male, Sprague-Dawley, plasma, oral, p.o. 10 mg/kg vs i.v. 1 mg/kg): 39% | AUC(0-inf) ([3]; male, Sprague-Dawley, plasma, oral 10 mg/kg): 432 ng·h/mL | Brain AUC inf ([3]; oral 10 mg/kg): 2713 ng·h/g | Cmax (Brain) ([3]; oral 10 mg/kg): 818 ng/G tissue | improvement in brain AUC compared to PXT001858 ([3]; oral 10 mg/kg): 3 fold | plasma exposure AUC relative to PXT001858 [3, 9]: 1.1 fold | plasma exposure Cmax relative to PXT001858 [3, 9]: 0.7 fold | level of glucuronidation compared to PXT001858 [7]: much lower level of glucuronidation | induction of dyskinesia ([1]; PXT002331 alone, any of the doses tested, more advanced stages of PD): did not induce dyskinesia | change of dyskinesia by PXT002331 treatment ([1]; added to sub-optimal doses of L-DOPA, any dose tested): not increased | induction of dyskinesia ([2]; CLD MPTP macaques, PXT002331 alone or in combination with any doses of L-DOPA tested): no induction of dyskinesia | induction of dyskinesia ([2]; PXT002331 25 to 100 mg/kg + optimal (high) dose of L-dopa): without inducing dyskinesia
SMILES: O/N=c1\cc(-c2cc3sccc3cn2)oc2ccc(CCCN3CCOCC3)cc12 [PXT002331, 6-(3-morpholin-4-yl-propyl)-2-(thieno[3,2-c]pyridin-6-yl)-4H-chromen-4-one oxime]
robustness: monkeys improving in parkinsonian score ([1]; PXT002331 25 mg/kg + low dose L-dopa, day 4): all treated monkeys showed a significant improvement in parkinsonian score | parkinsonian score versus L-dopa (suboptimal dose) alone ([1]; PXT002331 25 mg/kg p.o. twice a day 4 days + suboptimal L-dopa 4-9 mg/kg, day 4): considerable improvement in parkinsonian score | anti-parkinsonian effect, dose-response evaluation ([1]; PXT002331 2 to 100 mg/kg oral + L-dopa (low dose), day 4): highly potent anti-parkinsonian effect | anti-parkinsonian activity (parkinsonian score) ([1]; stand-alone treatment, p.o. twice a day for 4 days, score at day 4 over 2 h, n=7): potent anti-parkinsonian activity | robustness: monkeys responding in locomotor activity ([2]; PXT002331 25 mg/kg + L-dopa): each and every monkey included in the study responded | locomotor activity ([2]; PXT002331 25 mg/kg oral + low or optimal dose of L-dopa (Madopar), total over 4 hours, N=5): significant improvement in locomotor activity | disability score ([2]; increasing doses of PXT002331 + L-dopa (optimal dose)): improvement in the disability score | worsening of cognitive performances in VDR task (CLD MPTP macaque model; PXT002331 25 mg/kg alone or in combination with L-DOPA, N=4): none of the treatments with PXT002331, alone or in combination with L-DOPA, induced any worsening of the cognitive performances | omission rate in VDR task, change on adding PXT002331 (CLD MPTP macaque model; one out of four animals, PXT002331 25 mg/kg added to optimal dose of L-DOPA): decreased by half | dyskinesia (mean dyskinesia score over 2 hours) ([8]; PXT002331 25 mg/kg + L-DOPA, 30 min before or same time, day 1 and day 8 (twice daily)): clear reduction of dyskinesia | robustness: dyskinetic monkeys responding ([8]; PXT002331 25 mg/kg + L-DOPA, N=4 dyskinetic animals): each and every dyskinetic monkey included in the study responded to treatment | efficacy of L-DOPA for reducing parkinsonian symptoms (tremor, posture, mobility) ([8]; in association with PXT002331 25 mg/kg): maintained | adverse change in behavior (circling, excitement, lethargy, sleepiness) (MPTP macaques): never induced any apparent adverse change in behavior
